{"source": "patent US20200308170A1", "about": "“KRAS G12C INHIBITORS” (Mirati Therapeutics, Inc., priority 2017, published 2020)"}
{"target": "T1, KRas G12C (Homo sapiens, UniProt P01116, C118S/C51S/C80L/G12C)", "T1 construct": "GDP-loaded K-Ras (1-169) G12C, C51S, C80L, C118S", "assay": "KRas G12C Modification Assay (LCMS detection of covalent adduct)", "format": "binding", "settings": "5 μM concentration for 3 hours; LC/MS of intact protein; higher POC = higher degree of modification", "protocol": "A 10 μL aliquot of each protein solution was then transferred to a 384 well microtiter plate. Initial compound stocks were generated at fifty times their desired final assay concentration in DMSO.\nExemplary compounds of Formula (II) were diluted 25-fold into K-Ras Assay Buffer to a final of two times their final concentration. A 10 μL aliquot of each diluted compound solution was then added to each of the protein solutions in the microtiter plate to initiate reaction. […] At each time point, the reactions were quenched with 20 μL of a 25 mM acetic acid solution. […] Once all reactions were quenched, the plates were heat sealed and the samples were injected into a LC/MS system for data acquisition.\nSamples were injected in their liquid phase onto a C-3 reverse phase column to remove assay buffer and prepare the samples for mass spectrometer. The proteins were eluted from the column using an acetonitrile gradient and fed directly into the mass analyzer. Initial raw data analysis took place in Agilent MassHunter software immediately post data acquisition.\nRaw data analysis of the intact protein was exclusively a deconvolution of the multiple charge states of each protein in solution using a maximum entropy deconvolution provided in Mass Hunter. To minimize complexity, only the data over limited mass ranges were considered for analysis, with a minimum of one Dalton mass step intervals. The heights of all masses identified during raw data analysis were exported to be further analyzed in Spotfire® data analysis software.\nFinal data analysis was a multistep process in the Spotfire® data analysis software package. Briefly, each protein mass was calculated as a percent of the total signal of that sample, that percentage was then normalized to the percentage of signal of the protein in the absence of reactive compounds. Those normalized signals were reported as normalized percent of control (POC). […] Key: “A”≤25% POC; “B”>25% POC−≤50% POC; “C”>50% POC and ND=not determined."}
{"smiles": "C=C(C(=O)N1CCN(c2nc(OC[C@@H]3CCCN3C)nc3c2CCN(c2cccc4cccc(Cl)c24)C3)C[C@@H]1CC#N)C(F)(F)F", "note": "[Example 33, 2-[(2S)-4-[7-(8-chloro-1-naphthyl)-2-[[(2S)-1-methylpyrrolidin-2-yl]methoxy]-6,8-dihydro-5H-pyrido[3,4-d]pyrimidin-4-yl]-1-[2-(trifluoromethyl)prop-2-enoyl]piperazin-2-yl]acetonitrile]", "POC (normalized percent of control; degree of covalent modification of KRas G12C)": "C (“C”>50% POC)"}
{"smiles": "Cc1cccc2cccc(N3CCc4c(nc(OC[C@@H]5CCCN5C)nc4N4CCN(C(=O)/C=C/c5cnn(C)c5)[C@@H](CC#N)C4)C3)c12", "note": "[Example 23, 2-((S)-1-((E)-3-(1-methyl-1H-pyrazol-4-yl)acryloyl)-4-(7-(8-methylnaphthalen-1-yl)-2-(((S)-1-methylpyrrolidin-2-yl)methoxy)-5,6,7,8-tetrahydropyrido[3,4-d]pyrimidin-4-yl)piperazin-2-yl)acetonitrile]", "POC (normalized percent of control; degree of covalent modification of KRas G12C)": "C (“C”>50% POC)"}
{"smiles": "C=C(COC)C(=O)N1CCN(c2nc(OC[C@@H]3CCCN3C)nc3c2CCN(c2cccc4cccc(Cl)c24)C3)C[C@@H]1CC#N", "note": "[Example 14, 2-[(2S)-4-[7-(8-chloro-1-naphthyl)-2-[[(2S)-1-methylpyrrolidin-2-yl]methoxy]-6,8-dihydro-5H-pyrido[3,4-d]pyrimidin-4-yl]-1-[2-(methoxymethyl)prop-2-enoyl]piperazin-2-yl]acetonitrile]", "POC (normalized percent of control; degree of covalent modification of KRas G12C)": "A (“A”≤25% POC)"}
{"smiles": "Cc1cccc2cccc(N3CCc4c(nc(OC[C@@H]5CCCN5C)nc4N4CCN(C(=O)C5=CC(=O)CC5)[C@@H](CC#N)C4)C3)c12", "note": "[Example 26, 2-((S)-4-(7-(8-methylnaphthalen-1-yl)-2-(((S)-1-methylpyrrolidin-2-yl)methoxy)-5,6,7,8-tetrahydropyrido[3,4-d]pyrimidin-4-yl)-1-(3-oxocyclopent-1-ene-1-carbonyl)piperazin-2-yl)acetonitrile]", "POC (normalized percent of control; degree of covalent modification of KRas G12C)": "C (“C”>50% POC)"}
{"smiles": "CN1CCC[C@H]1COc1nc2c(c(N3CCN(C(=O)/C=C/C(F)F)[C@@H](CC#N)C3)n1)CCN(c1cccc3cccc(Cl)c13)C2", "note": "[Example 13, 2-[(2S)-4-[7-(8-chloro-1-naphthyl)-2-[[(2S)-1-methylpyrrolidin-2-yl]methoxy]-6,8-dihydro-5H-pyrido[3,4-d]pyrimidin-4-yl]-1-[(E)-4,4-difluorobut-2-enoyl]piperazin-2-yl]acetonitrile]", "POC (normalized percent of control; degree of covalent modification of KRas G12C)": "C (“C”>50% POC)"}
{"smiles": "Cc1cccc2cccc(N3CCc4c(nc(OC[C@@H]5CCCN5C)nc4N4CCN(C(=O)/C=C\\C#N)[C@@H](CC#N)C4)C3)c12", "note": "[Example 31, (Z)-4-((S)-2-(cyanomethyl)-4-(7-(8-methylnaphthalen-1-yl)-2-(((S)-1-methylpyrrolidin-2-yl)methoxy)-5,6,7,8-tetrahydropyrido[3,4-d]pyrimidin-4-yl)piperazin-1-yl)-4-oxobut-2-enenitrile]", "POC (normalized percent of control; degree of covalent modification of KRas G12C)": "C (“C”>50% POC)"}
{"smiles": "Cc1cccc(N2CCc3c(nc(OC[C@@H]4CCCN4C)nc3N3CCN(C(=O)/C=C\\Cl)[C@@H](CC#N)C3)C2)c1C", "note": "[Example 34, 2-((S)-1-((Z)-3-chloroacryloyl)-4-(7-(2,3-dimethylphenyl)-2-(((S)-1-methylpyrrolidin-2-yl)methoxy)-5,6,7,8-tetrahydropyrido[3,4-d]pyrimidin-4-yl)piperazin-2-yl)acetonitrile]", "POC (normalized percent of control; degree of covalent modification of KRas G12C)": "C (“C”>50% POC)"}
{"smiles": "CN1CCC[C@H]1COc1nc2c(c(N3CCN(C(=O)C#CCO)[C@@H](CC#N)C3)n1)CCN(c1cccc3cccc(Cl)c13)C2", "note": "[Example 12, 2-[(2S)-4-[7-(8-chloro-1-naphthyl)-2-[[(2S)-1-methylpyrrolidin-2-yl]methoxy]-6,8-dihydro-5H-pyrido[3,4-d]pyrimidin-4-yl]-1-(4-hydroxybut-2-ynoyl)piperazin-2-yl]acetonitrile]", "POC (normalized percent of control; degree of covalent modification of KRas G12C)": "C (“C”>50% POC)"}
{"smiles": "C=C(F)C(=O)N1CCN(c2nc(OC[C@@H]3CCCN3C)nc3c2CCN(c2cccc(C)c2C)C3)C[C@@H]1CC#N", "note": "[Example 1, 2-[(2S)-4-[7-(2,3-dimethylphenyl)-2-[[(2S)-1-methylpyrrolidin-2-yl]methoxy]-6,8-dihydro-5H-pyrido[3,4-d]pyrimidin-4-yl]-1-(2-fluoroprop-2-enoyl)piperazin-2-yl]acetonitrile]", "POC (normalized percent of control; degree of covalent modification of KRas G12C)": "C (“C”>50% POC)"}
{"smiles": "C=C(Cl)C(=O)N1CCN(c2nc(OC[C@@H]3CCCN3C)nc3c2CCN(c2cccc(C)c2C)C3)C[C@@H]1CC#N", "note": "[Example 2, 2-[(2S)-1-(2-chloroprop-2-enoyl)-4-[7-(2,3-dimethylphenyl)-2-[[(2S)-1-methylpyrrolidin-2-yl]methoxy]-6,8-dihydro-5H-pyrido[3,4-d]pyrimidin-4-yl]piperazin-2-yl]acetonitrile]", "POC (normalized percent of control; degree of covalent modification of KRas G12C)": "C (“C”>50% POC)"}
{"smiles": "COC/C=C/C(=O)N1CCN(c2nc(OC[C@@H]3CCCN3C)nc3c2CCN(c2cccc(C)c2C)C3)C[C@@H]1CC#N", "note": "[Example 18, 2-((S)-4-(7-(2,3-dimethylphenyl)-2-(((S)-1-methylpyrrolidin-2-yl)methoxy)-5,6,7,8-tetrahydropyrido[3,4-d]pyrimidin-4-yl)-1-((E)-4-methoxybut-2-enoyl)piperazin-2-yl)acetonitrile]", "POC (normalized percent of control; degree of covalent modification of KRas G12C)": "C (“C”>50% POC)"}
{"smiles": "Cc1cccc2cccc(N3CCc4c(nc(OC[C@@H]5CCCN5C)nc4N4CCN(C(=O)/C=C/CF)[C@@H](CC#N)C4)C3)c12", "note": "[Example 35, 2-((S)-1-((E)-4-fluorobut-2-enoyl)-4-(7-(8-methylnaphthalen-1-yl)-2-(((S)-1-methylpyrrolidin-2-yl)methoxy)-5,6,7,8-tetrahydropyrido[3,4-d]pyrimidin-4-yl)piperazin-2-yl)acetonitrile]", "POC (normalized percent of control; degree of covalent modification of KRas G12C)": "C (“C”>50% POC)"}
{"smiles": "CN1CCC[C@H]1COc1nc2c(c(N3CCN(C(=O)/C=C/CF)[C@@H](CC#N)C3)n1)CCN(c1cccc3cccc(Cl)c13)C2", "note": "[Example 8, 2-[(2S)-4-[7-(8-chloro-1-naphthyl)-2-[[(2S)-1-methylpyrrolidin-2-yl]methoxy]-6,8-dihydro-5H-pyrido[3,4-d]pyrimidin-4-yl]-1-[(E)-4-fluorobut-2-enoyl]piperazin-2-yl]acetonitrile]", "POC (normalized percent of control; degree of covalent modification of KRas G12C)": "C (“C”>50% POC)"}
{"smiles": "C=C(C(=O)N1CCN(c2nc(OC[C@@H]3CCCN3C)nc3c2CCN(c2cccc4cccc(C)c24)C3)C[C@@H]1CC#N)C(F)(F)F", "note": "[Example 21, 2-((S)-4-(7-(8-methylnaphthalen-1-yl)-2-(((S)-1-methylpyrrolidin-2-yl)methoxy)-5,6,7,8-tetrahydropyrido[3,4-d]pyrimidin-4-yl)-1-(2-(trifluoromethyl)acryloyl)piperazin-2-yl)acetonitrile]", "POC (normalized percent of control; degree of covalent modification of KRas G12C)": "A (“A”≤25% POC)"}
{"smiles": "C=C(OC)C(=O)N1CCN(c2nc(OC[C@@H]3CCCN3C)nc3c2CCN(c2cccc4cccc(C)c24)C3)C[C@@H]1CC#N", "note": "[Example 41, 2-[(2S)-1-(2-methoxyprop-2-enoyl)-4-[7-(8-methyl-1-naphthyl)-2-[[(2S)-1-methylpyrrolidin-2-yl]methoxy]-6,8-dihydro-5H-pyrido[3,4-d]pyrimidin-4-yl]piperazin-2-yl]acetonitrile]", "POC (normalized percent of control; degree of covalent modification of KRas G12C)": "A (“A”≤25% POC)"}
{"smiles": "CN1CCC[C@H]1COc1nc2c(c(N3CCN(C(=O)/C=C/CO)[C@@H](CC#N)C3)n1)CCN(c1cccc3cccc(Cl)c13)C2", "note": "[Example 42, 2-[(2S)-4-[7-(8-chloro-1-naphthyl)-2-[[(2S)-1-methylpyrrolidin-2-yl]methoxy]-6,8-dihydro-5H-pyrido[3,4-d]pyrimidin-4-yl]-1-[(E)-4-hydroxybut-2-enoyl]piperazin-2-yl]acetonitrile]", "POC (normalized percent of control; degree of covalent modification of KRas G12C)": "C (“C”>50% POC)"}
{"smiles": "C=C(F)C(=O)N1CCN(c2nc(OC[C@@H]3CCCN3C)nc3c2CCN(c2cccc4cccc(C)c24)C3)C[C@@H]1CC#N", "note": "[Example 36, 2-((S)-1-(2-fluoroacryloyl)-4-(7-(8-methylnaphthalen-1-yl)-2-(((S)-1-methylpyrrolidin-2-yl)methoxy)-5,6,7,8-tetrahydropyrido[3,4-d]pyrimidin-4-yl)piperazin-2-yl)acetonitrile]", "POC (normalized percent of control; degree of covalent modification of KRas G12C)": "C (“C”>50% POC)"}
